From patent US20260207565A1, “COMPOUNDS THAT INHIBIT PKMYT1” (Exelixis, Inc., priority 2022, published 2026)

Key:
PKMYT1 = biological target: T1, PKMYT1 (Homo sapiens, UniProt Q99640); assay: ADP-Glo PKMYT1 ATP-depletion assay; details: 50 nM PKMYT1, 13.3 nM CDK1, 88 μM ATP, 120 minutes at RT, read-out: Biochemical IC50
T1 construct: PKMYT1 (93 kD, full length, N-terminal GST tag from Signal Chem); GST (N); purchased Signal Chem
T1 sequence (Q99640 1-499): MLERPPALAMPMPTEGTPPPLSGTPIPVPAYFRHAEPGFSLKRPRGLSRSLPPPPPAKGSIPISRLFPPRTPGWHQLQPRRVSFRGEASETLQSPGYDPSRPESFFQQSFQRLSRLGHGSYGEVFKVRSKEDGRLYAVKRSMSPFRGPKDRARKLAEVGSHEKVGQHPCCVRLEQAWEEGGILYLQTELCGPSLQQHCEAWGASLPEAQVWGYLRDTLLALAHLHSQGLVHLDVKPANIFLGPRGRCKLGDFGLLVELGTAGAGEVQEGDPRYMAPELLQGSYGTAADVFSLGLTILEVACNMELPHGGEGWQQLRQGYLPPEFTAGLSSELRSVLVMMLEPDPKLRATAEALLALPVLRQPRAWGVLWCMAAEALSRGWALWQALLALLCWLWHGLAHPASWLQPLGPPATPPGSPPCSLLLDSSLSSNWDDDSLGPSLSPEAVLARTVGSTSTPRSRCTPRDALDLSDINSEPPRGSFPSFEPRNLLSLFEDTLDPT
Summary of the method: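 Full-length N-GST PKMYT1 (50 nM) incubated 120 min at RT with full-length GST-CDK1 (13.3 nM) and 88 μM ATP in Hepes buffer containing Mg2+, Mn2+, DTT and BSA; DMSO <10%. ADP formed was converted via ADP-Glo to luminescence; IC50 derived.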

[1] = system: phosphorylation of CDK1 at Thr14 in HCC1806 cells; assay: Cell lysate AlphaLISA assay measuring inhibition of phosphorylation of CDK1 Thr14; type: cell-based; details: Homo sapiens, HCC1806, 4 h, compounds incubated 4 hours, AlphaLISA SureFire Ultra CDK1 Thr14, read-out: Cellular IC50
Summary of the method: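 HCC1806 cells treated with compound for 4 h at 37 °C, lysed, and phospho-CDK1 Thr14 quantified by AlphaLISA SureFire Ultra. Data normalized to DMSO (0% inhibition) and 3 μM reference compound; IC50 derived.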

Row | IC50 (PKMYT1) | IC50 [1] | SMILES
1 | 50 to 500 nM | ≥ 5000 nM | Cc1cn2cc(C(N)=O)c(N)c(-c3cccc(O)c3C)c2n1 [Compound 47, 7-Amino-8-(3-hydroxy-2-methylphenyl)-2-methylimidazo[1,2-a]pyridine-6-carboxamide]
2 | 50 to 500 nM | ≥ 5000 nM | Cc1nc2c(-c3cccc(O)c3C)c(N)c(C(N)=O)cn2c1C [Compound 48, 7-Amino-8-(3-hydroxy-2-methylphenyl)-2,3-dimethylimidazo[1,2-a]pyridine-6-carboxamide]
3 | < 50 nM | 50 to 500 nM | Cc1c(O)cccc1-c1c(N)c(C(N)=O)nc2c1c(C(N)=O)nn2C [Compound 55, 5-amino-4-(3-hydroxy-2-methylphenyl)-1-methyl-1H-pyrazolo[3,4-b]pyridine-3,6-dicarboxamide]
4 | 50 to 500 nM | ≥ 5000 nM | Cc1c(O)cccc1-c1c(N)c(C(N)=O)nc2c1cnn2C [Compound 56, 5-Amino-4-(3-hydroxy-2-methylphenyl)-1-methyl-pyrazolo[3,4-b]pyridine-6-carboxamide]
5 | 50 to 500 nM | 50 to 500 nM | Cc1c(O)cccc1-c1c(N)c(C(N)=O)nc2c1c(Br)nn2C [Compound 57, 5-Amino-3-bromo-4-(3-hydroxy-2-methylphenyl)-1-methyl-1H-pyrazolo[3,4-b]pyridine-6-carboxamide]

The next lines start with the molecule.

Row | SMILES | IC50 (PKMYT1) | IC50 [1]
6 | Cc1ccc(O)c(C)c1-c1cc(C(N)=O)cn2ccnc12 [Compound 42, 8-(3-hydroxy-2,6-dimethylphenyl)imidazo[1,2-a]pyridine-6-carboxamide] | 1000 to 5000 nM | 1000 to 5000 nM
7 | Cc1c(O)cccc1-c1c(N)c(C(N)=O)cn2ccnc12 [Compound 43, 7-amino-8-(3-hydroxy-2-methylphenyl)imidazo[1,2-a]pyridine-6-carboxamide] | 500 to 1000 nM | ≥ 5000 nM
8 | Cc1ccc(O)c(C)c1-c1c(N)c(C(N)=O)cn2ccnc12 [Compound 46, 7-amino-8-(3-hydroxy-2,6-dimethylphenyl)imidazo[1,2-a]pyridine-6-carboxamide] | 50 to 500 nM | 1000 to 5000 nM
9 | Cc1c(O)cccc1-c1c(N)c(C(N)=O)cn2cc(C(F)(F)F)nc12 [Compound 49, 7-amino-8-(3-hydroxy-2-methylphenyl)-2-(trifluoromethyl)imidazo[1,2-a]pyridine-6-carboxamide] | 50 to 500 nM | ≥ 5000 nM
10 | COC(=O)c1cnc2c(-c3cccc(O)c3C)c(N)c(C(N)=O)cn12 [Compound 50, Methyl 7-amino-6-carbamoyl-8-(3-hydroxy-2-methylphenyl)imidazo[1,2-a]pyridine-3-carboxylate] | 50 to 500 nM | 500 to 1000 nM
11 | Cn1cc(C#N)c2c(-c3cncc(Cl)c3Cl)c(N)c(C(N)=O)nc21 [Compound 66, 5-Amino-3-cyano-4-(4,5-dichloropyridin-3-yl)-1-methyl-1H-pyrrolo[2,3-b]pyridine-6-carboxamide] | < 50 nM | 50 to 500 nM
12 | COc1c(F)cncc1-c1c(N)c(C(N)=O)nc2c1c(C#N)cn2C [Compound 67, 5-Amino-3-cyano-4-(5-fluoro-4-methoxypyridin-3-yl)-1-methyl-1H-pyrrolo[2,3-b]pyridine-6-carboxamide] | < 50 nM | < 50 nM
13 | CCn1nc(C(=O)NC)c2c(-c3c(C)ccc(O)c3C)c(N)c(C(N)=O)nc21 [Compound 73, 5-Amino-1-ethyl-4-(3-hydroxy-2,6-dimethylphenyl)-N^3-methyl-1H-pyrazolo[3,4-b]pyridine-3,6-dicarboxamide] | < 50 nM | < 50 nM
